# Reference: US4495101A, “Antiinflammatory 5H-tetrazolo (5,1-c)(1,4)benzodiazepine derivatives” (American Home Products Corporation, priority 1983, dated 1985)
# System: carrageenan-induced paw edema
# Assay: rat carrageenan edema test (paw volume, mercury plethysmography)
# Type: in vivo, male Sprague-Dawley or Charles River rats
# Details: 150 mg/kg oral, one hour prior to 1% carrageenan, read three hours after carrageenan, vs control, *p ≤ 0.05, **p ≤ 0.01
# Description: The anti-inflammatory activity of the claimed compounds was established by direct measurement of the effect of structurally representative compounds in the rat carrageenan edema test. This standard pharmacological procedure for determining antiinflammatory effects of a compound is performed by subcutaneous injection in the right paw of 6 animals (140-180 grams, male Sprague-Dawley or Charles River rats) with 0.1 milliliter of 1 percent carrageenan at zero time. The compounds representative of this invention are administered orally one hour prior to carrageenan at 150 milligrams per kilogram. The paw volume (edema in milliliters) is determined at zero time and three hours after carrageenan administration by mercury plethysmographic readings (milliliter) of the paw. From the change in paw volume compared to control, the percent inhibition of edema is determined. The results obtained with the compounds of Examples 1, 9, 17 and 18, which are representative of the other compounds of the invention, are as follows: […]
smiles,measurement,value
"S=C1Nc2ccc(Cl)cc2Cn2nnnc21 [Example 9, 5,10-Dihydro-7-Chloro-11H-tetrazolo[5,1-c][1,4]-benzodiazepine-11-thione]",% Inhibition of Edema,42%
"O=C1Nc2ccc(Cl)cc2Cn2nnnc21 [Example 1, 7-Chloro-5,10-dihydro-11H-tetrazolo[5,1-c][1,4]-benzodiazepine-11-one]",% Inhibition of Edema,39%
"CN1CCN(C2=Nc3cc(Cl)ccc3Cn3nnnc32)CC1 [Example 17, 8-Chloro-11-(4-methyl-1-piperazinyl)-5H-tetrazolo[5,1-c][1,4]benzodiazepine]",% Inhibition of Edema,42%
"Cc1ccc2c(c1)Cn1nnnc1C(N1CCN(C)CC1)=N2 [Example 18, 7-Methyl-11-(4-methyl-1-piperazinyl)-5H-tetrazolo[5,1-c][1,4]benzodiazepine]",% Inhibition of Edema,33%
